Reference: US9486465B2, “Attractant for bone marrow stem cells and method for attracting bone marrow stem cells” (PIAS CORPORATION, priority 2012, dated 2016)

Test system: wound with full-thickness skin loss in genetically diabetic db/db mice
Experiment: Cell attraction test in vivo of mice: skin regeneration test (wound healing test)
Parameters: species or system mouse
Conditions: 120 μg/mL or 40 μg/mL PBS solution, 20 μL per site dropwise onto wound surface, three times per week for four weeks, FIG. 4
Source text: Cell Attraction Test In Vivo of Mice
In order to evaluate the performance of the attractant for bone marrow stem cells to attract bone marrow stem cells in vivo of mice, living mice were subjected to experiments as follows. When a living mouse is wounded, bone marrow stem cells can accumulate around the wound portion through the bloodstream. Then, the bone marrow stem cells that have accumulated around the wound portion secrete cytokine, or the bone marrow stem cells that have accumulated around the wound portion differentiate into cells of the wound portion, thereby allowing the wound to be healed. Accordingly, it is expected that application of the attractant for bone marrow stem cells to the wound portion causes the bone marrow stem cells to be attracted to the wound portion, thereby accelerating the healing of the wound.
Method of Skin Regeneration Test (Wound Healing Test) […]
A picture of the back was captured three times per week, for four weeks, and the image was loaded into a PC. Thus, the wound area was measured using an image analysis software (product name: Image J). Thereafter, the wound area was measured once a week until about 60 days from the wound creation.

SMILES: Oc1cc(O)c2c(c1)O[C@@]1(c3ccc(O)c(O)c3)Oc3cc(O)c4c(c3[C@@H]2[C@H]1O)O[C@H](c1ccc(O)c(O)c1)[C@H](O)[C@H]4c1c(O)cc(O)c2c1O[C@H](c1ccc(O)c(O)c1)[C@H](O)C2 [cinnamtannin B1]
- wound area measurement (healing of the wound): healing of the wound was accelerated
